Tested on: beagle dogs under isoflurane anesthesia, right-atrial burst pacing
Assay: AF inducibility and LA size/function with phenylephrine on board (Example 3)
[1] = 0.3-0.4 mg/kg IV bolus with 0.3/0.4 mg/kg/hr IV infusion, P<0.05
[2] = IV bolus + infusion with PE vs PE alone, FIG. 4

For Cn1cc(S(=O)(=O)[C@@](C)(F)C2CCN(C(=O)Nc3ccon3)CC2)c(C(F)F)n1 [Compound I, (R)-4-(1-((3-(difluoromethyl)-1-methyl-1H-pyrazol-4-yl)sulfonyl)-1-fluoroethyl)-N-(isoxazol-3-yl)piperidine-1-carboxamide], the “fractional shortening (FS), increase” value [1] was 13±3%, the “left-ventricular stroke volume (SV), increase” value [1] was 16±5% and the “systolic ejection time (SET), change” value (0.3-0.4 mg/kg IV bolus with 0.3/0.4 mg/kg/hr IV infusion, prolonged, P<0.05) was 10±3%. The “SBP under Compound I” value (0.3-0.4 mg/kg IV bolus with IV infusion, PE on board, systemic pressures preserved) was 135.7±6.2 mmHg, the “LV contractility (ΔEF)” value (Compound I, Example 3 protocol, FIG. 6) was “increase LV contractility” and the “atrial emptying fraction (LA EF)” value [2] was “increasing the atrial emptying fraction”. For the same compound, the “left-atrial size (LA Volmin)” value [2] was “decreased left-atrial size” and the “AF inducibility (e.g., AF duration)” value (IV bolus + infusion with PE vs PE alone, burst pacing, FIG. 4) was “decreasing AF inducibility”.

— patent US20230233545A1, “TREATMENT OF ATRIAL DYSFUNCTION” (MyoKardia, Inc., priority 2020, published 2023)
